Reference: US8426447B2, “Spiro-tricyclic ring compounds as beta-secretase modulators and methods of use” (Amgen Inc., priority 2008, dated 2013)
Blank lines part the entries; values can stand above or below the compound they belong to.

What was measured:
[1] = target: T1, BACE1 (Homo sapiens, UniProt P56817); experiment: In Vitro BACE Cell-based Assay (HEK cell assay): Aβ40 in conditioned medium of cells stably expressing Amyloid Precursor Protein, sandwich ELISA; conditions: read-out: HEK cell assay
Summary of the method: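 APP-expressing cells were cultured 24 h in DMEM/10% FBS, then treated 24 h with compounds in 10-point dose response (top 100 μM or 10 μM; 0.1% DMSO final). Secreted Aβ40 was quantified by sandwich ELISA (pAb40 capture, biotinylated 6E10 detection, Europium TRF); IC50 from percent inhibition versus concentration.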

[2] = target: T1, BACE1; experiment: In Vitro Enzymatic BACE FRET (Fluorescence Resonance Energy Transfer) Assay; type: biochemical; conditions: read-out: BACE1 FRET assay
Summary of the method: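 Buffer 0.05 M acetate pH 4.2 with 10% DMSO final and 100 uM genapol; reaction started with 50 nM FRET peptide substrate (fluorophore/quencher flanking BACE cleavage site), incubated one hour. Stopped with Tris buffer raising pH to neutrality, then fluorescence read.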

[3] = HEK cell-based assay, Aβ40 in conditioned medium, IC50 class symbols
[4] = in vitro BACE FRET enzyme assay, IC50 class symbols

T1 sequence (P56817 46-501, species assumed): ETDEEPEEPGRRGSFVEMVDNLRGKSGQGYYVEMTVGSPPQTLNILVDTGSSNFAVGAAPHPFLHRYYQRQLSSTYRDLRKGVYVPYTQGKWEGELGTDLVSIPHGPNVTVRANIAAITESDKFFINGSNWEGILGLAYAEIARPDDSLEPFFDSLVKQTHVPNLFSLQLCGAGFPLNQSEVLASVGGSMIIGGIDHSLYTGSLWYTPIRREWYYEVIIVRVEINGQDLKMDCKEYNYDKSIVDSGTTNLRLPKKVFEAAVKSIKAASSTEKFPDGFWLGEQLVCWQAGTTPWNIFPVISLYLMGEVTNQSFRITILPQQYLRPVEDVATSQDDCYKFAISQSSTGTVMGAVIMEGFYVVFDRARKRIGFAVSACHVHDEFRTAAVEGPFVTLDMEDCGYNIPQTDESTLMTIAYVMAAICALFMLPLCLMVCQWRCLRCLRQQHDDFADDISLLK

IC50 ([1]; HEK cells): 0.1 to 1 µM | IC50 [2]: 0.1 to 1 µM
SMILES: CC(C)(C)C#Cc1ccc2c(n1)[C@]1(COC(N)=N1)c1cc(-c3cncnc3)ccc1O2 [compound 526]

IC50 [1, 3]: < 0.1 µM | IC50 [2, 4]: < 0.1 µM
SMILES: NC1=N[C@@]2(CO1)c1cc(-c3cncc(F)c3)ccc1Oc1cnc(C3CCOCC3)cc12 [compound 331]

IC50 [1]: 1 to 5 µM | IC50 [2]: < 0.1 µM
SMILES: CC(C)(C)COc1ccc2c(c1)[C@]1(COC(N)=N1)c1cc(-c3cncs3)ccc1O2 [compound 971]

IC50 [1, 3]: < 0.1 µM | IC50 [2, 4]: < 0.1 µM
SMILES: NC1=N[C@@]2(CO1)c1cc(-c3cc(Cl)ccc3F)ccc1Oc1cnc(-c3cccnc3)cc12 [compound 367]

IC50 ([1]; Table III, IC50's in uM ranges): > 5 µM | IC50 ([2]; Table III, IC50's in uM ranges): 0.1 to 1 µM
SMILES: Cc1n[nH]cc1-c1ccc2c(c1)[C@@]1(COC(N)=N1)c1cc(OCC(C)(C)C)ccc1O2 [Example 129, (S)-2′-(3-methyl-1H-pyrazol-4-yl)-7′-(neopentyloxy)-5H-spiro[oxazole-4,9′-xanthen]-2-amine 2,2,2-trifluoroacetate]

IC50 ([1]; HEK cells): < 0.1 µM | IC50 [2]: < 0.1 µM
SMILES: NC1=N[C@]2(CO1)c1cc(C3=CCOC3)ccc1Oc1ccc(-c3cncnc3)cc12 [compound 448]

IC50 [1]: > 5 µM | IC50 [2]: 1 to 5 µM
SMILES: NC1=N[C@]2(CO1)c1cc(-c3cccnc3)ccc1Oc1cnc(Cl)cc12 [compound 955]

IC50 [1, 3]: < 0.1 µM | IC50 [2, 4]: < 0.1 µM
SMILES: CC(C)(C)COc1cnc2c(c1)[C@]1(COC(N)=N1)c1cc(-c3cccc(C#N)c3)ccc1O2 [compound 358]

IC50 ([1]; HEK cells): < 0.1 µM | IC50 [2]: < 0.1 µM
SMILES: COC(=O)CN1CCN(c2cc3c(cn2)Oc2ccc(-c4cccnc4)cc2[C@@]32COC(N)=N2)CC1 [compound 438]

IC50 ([1]; Table III, IC50's in uM ranges): 0.1 to 1 µM | IC50 ([2]; Table III, IC50's in uM ranges): < 0.1 µM
SMILES: C[C@@H]1OC(N)=N[C@@]12c1cc(OCC(C)(C)C)ccc1Oc1ccc(-c3cncnc3)cc12 [126b]

IC50 ([1]; HEK cells): < 0.1 µM | IC50 [2]: < 0.1 µM
SMILES: CC(C)(C)CNc1cc2c(cn1)Oc1ccc(-c3cccnc3)cc1[C@@]21COC(N)=N1 [compound 440]

IC50 ([1]; Table IV, class symbols): < 0.1 µM | IC50 ([2]; Table IV, class symbols): < 0.1 µM
SMILES: NC1=N[C@@]2(CO1)c1cc(-c3cccnc3)ccc1Oc1cnc(C3CCOCC3)cc12 [compound 801]

IC50 ([1]; Table IV, class symbols): 1 to 5 µM | IC50 ([2]; Table IV, class symbols): > 5 µM
SMILES: NC1=N[C@@]2(CO1)c1cc(-c3ccc4nccn4c3)ccc1Oc1ncccc12 [compound 572]

IC50 [1, 3]: > 5 µM | IC50 [2, 4]: 1 to 5 µM
SMILES: COc1ccc2c(c1)[C@@]1(COC(N)=N1)c1cc(Br)cc(F)c1O2 [compound 378]

IC50 [1]: < 0.1 µM | IC50 [2]: < 0.1 µM
SMILES: C[C@](O)(C#Cc1ccc2c(c1)[C@]1(COC(N)=N1)c1cc(-c3cccnc3)ccc1O2)C(F)(F)F [compound 698]

IC50 [1, 3]: < 0.1 µM | IC50 [2, 4]: < 0.1 µM
SMILES: Cc1cc(-c2ccc3c(c2)[C@]2(COC(N)=N2)c2cc(-c4cccnc4)ccc2O3)cc(=O)o1 [compound 390]

IC50 ([1]; Table IV, class symbols): > 5 µM | IC50 ([2]; Table IV, class symbols): > 5 µM
SMILES: NC1=N[C@@]2(CO1)c1cc(-c3cccnc3)ccc1Oc1ncccc12 [compound 594]

IC50 [1]: > 5 µM | IC50 [2]: > 5 µM
SMILES: CC(C)(C)OC(=O)/C=C/c1ccc2c(c1)[C@]1(COC(N)=N1)c1cc(Br)ccc1O2 [compound 996]

IC50 [1]: 1 to 5 µM | IC50 [2]: 1 to 5 µM
SMILES: NC1=N[C@]2(CO1)c1cc(-c3ccccc3)ccc1Oc1ncc(C3=CCOCC3)cc12 [compound 718]

IC50 ([1]; HEK cells): 1 to 5 µM | IC50 [2]: 0.1 to 1 µM
SMILES: NC1=N[C@]2(CO1)c1cc(C3=CCOCC3)ccc1Oc1cc(F)c(O)cc12 [compound 491]

IC50 ([1]; HEK cells): < 0.1 µM | IC50 [2]: < 0.1 µM
SMILES: CC(C)(C)/C=C/c1cc2c(cn1)Oc1ccc(-c3cccnc3F)cc1[C@@]21COC(N)=N1 [compound 514]

IC50 [1]: < 0.1 µM | IC50 [2]: < 0.1 µM
SMILES: NC1=N[C@@]2(CO1)c1cc(-c3cccnc3)ccc1Oc1cnc(C3=CCCCC3)cc12 [compound 789]

IC50 [1]: < 0.1 µM | IC50 [2]: < 0.1 µM
SMILES: Cc1cccc(-c2ccc3c(c2)[C@]2(COC(N)=N2)c2cc(-c4cncnc4)ccc2O3)c1 [compound 998]

IC50 [1]: 1 to 5 µM | IC50 [2]: 1 to 5 µM
SMILES: CON(C)C(=O)COc1ccc2c(c1)[C@]1(COC(N)=N1)c1cc(-c3cccnc3)ccc1O2 [compound 788]

IC50 ([1]; HEK cells): 0.1 to 1 µM | IC50 [2]: 0.1 to 1 µM
SMILES: NC1=N[C@@]2(CO1)c1cc(-c3cccnc3)ccc1Oc1cnc(N)cc12 [compound 446]

IC50 ([1]; Table IV, class symbols): 0.1 to 1 µM | IC50 ([2]; Table IV, class symbols): 0.1 to 1 µM
SMILES: CC(=O)Cc1ccc2c(c1)[C@]1(COC(N)=N1)c1cc(-c3cccnc3)ccc1O2 [compound 658]

IC50 ([1]; Table IV, class symbols): 1 to 5 µM | IC50 ([2]; Table IV, class symbols): < 0.1 µM
SMILES: CC(C)(C)COc1ccc2c(c1)[C@]1(COC(N)=N1)c1cc(C3=CCCCC3)ccc1O2 [compound 803]
